Holding throughout (test): NCI anticancer screen, dose series, 48 h
Experiment [1] deals with ACHN.
The subject of experiment [2] is COLO 205.
Experiment [3] has as its system DU-145.
Experiment [4] has as its system HL-60.
Experiment [5] concerns HOP-62.
The test system of experiment [6] is HOP-92.
Experiment [7] concerns LOX IMVI.
The test system of experiment [8] is M14.
In experiment [9] the test system is MDA-N.
The subject of experiment [10] is MOLT-4.
Experiment [11] concerns NCI-H460.
Experiment [12] relates to NCI-H522.
Experiment [13] has as its system NCI/ADR-RES.
For experiment [14], the system named is OVCAR-5.
Experiment [15] deals with SK-MEL-28.
In experiment [16] the test system is SR.
Experiment [17] has as its system SW-620.
For experiment [18], the system named is TK-10.
In experiment [19] the test system is UACC-62.
Experiment [20] has as its system UO-31.

Results on 10 compounds are retold here after ChEMBL document CHEMBL1201862, “PubChem BioAssay data set” (2004).

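A five-concentration, 48-hour dose response in 96-well plates underlies each endpoint, interpolated linearly between surrounding concentrations. Here, GI50 denotes the concentration required for 50% inhibition of growth.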 The source made the active and inactive calls. Rule as the data show it: active = GI50 up to about 1.1 µM and inactive = higher. Where only a bound is given, the exact number is not on record here.

Regarding `CCOC(=O)c1ccc(NC(NC(=O)CC)(C(F)(F)F)C(F)(F)F)cc1`, the GI50 in experiment [1] was 55 µM (inactive); in experiment [2], > 100 µM (inactive); in experiment [3], > 100 µM (inactive); in experiment [4], > 100 µM (inactive); in experiment [5], > 100 µM (inactive); in [6], > 100 µM (inactive). The GI50 was 96.2 µM (inactive) in [7]; > 100 µM (inactive) in experiment [8]; > 100 µM (inactive) in [9]; 55.5 µM (inactive) in experiment [10]; > 100 µM (inactive) in experiment [11]; > 100 µM (inactive) in experiment [12]. Also, the GI50 in [13] was > 100 µM (inactive); in [14], > 100 µM (inactive); in experiment [15], > 100 µM (inactive); in [16] it was 14.1 µM (inactive); in experiment [17], > 100 µM (inactive); in [18], > 100 µM (inactive). For the same compound, the results for the GI50 in experiment [19] and in experiment [20] were 34.4 µM (inactive) and 36.2 µM (inactive), respectively.

As for `CCCCCCCCCCCCCCCCCCN(C)CC(COC)OP(=O)([O-])OCC[N+](C)(C)C` (stereo not given), the GI50 was 1.91 µM (inactive) in experiment [1]; 1.21 µM (inactive) in experiment [2]; 2.22 µM (inactive) in experiment [3]; 0.495 µM (active) in experiment [4]; 1.72 µM (inactive) in experiment [5]; 1.17 µM (inactive) in experiment [6]. For the same compound, the GI50 in experiment [7] is 5.14 µM (inactive); in [8], 4.11 µM (inactive); in [9], 4.2 µM (inactive); in experiment [10] it was 2.83 µM (inactive); in experiment [11], 0.851 µM (active); in experiment [12], 1.43 µM (inactive). Further, the GI50 was 17.9 µM (inactive) in experiment [13]; 1.72 µM (inactive) in [14]; 15.7 µM (inactive) in experiment [15]; 0.341 µM (active) in experiment [16]; 3.15 µM (inactive) in [17]; 1.03 µM (active) in experiment [18]. The GI50 in experiment [19] is 3.05 µM (inactive); in [20], 7.52 µM (inactive).

With `CC1C(=O)C(C)C(c2ccccc2)N(N=O)C1c1ccccc1` (stereo not given), the GI50 was 143 µM (inactive) in experiment [1]; > 553 µM (inactive) in [2]; 173 µM (inactive) in experiment [3]; > 724 µM (inactive) in experiment [4]; 41.8 µM (inactive) in experiment [5]; 24.9 µM (inactive) in experiment [6]. Besides, the GI50 in experiment [7] is > 533 µM (inactive); in experiment [8], 283 µM (inactive); in experiment [9], 134 µM (inactive); in experiment [10], > 695 µM (inactive); in [11] it was > 592 µM (inactive); in experiment [12], > 78.3 µM (inactive). For the same compound, the GI50 in experiment [13] was 179 µM (inactive); in experiment [14] it was > 527 µM (inactive); in experiment [15], > 409 µM (inactive); in [16], > 439 µM (inactive); in [17] it was > 100 µM (inactive); in experiment [18], 207 µM (inactive). In addition, the GI50 is > 475 µM (inactive) in experiment [19] and > 21.1 µM (inactive) in [20].

For the compound `Cc1nc(O)c(Cc2ccccc2O)c(-c2ccccc2)n1`, the GI50 in experiment [1], in experiment [2], in [3], in experiment [4], in experiment [5] and in experiment [6] was > 100 µM (inactive) each time. The GI50 in experiment [7], in experiment [8], in [9], in [10], in experiment [11] and in experiment [12] was > 100 µM (inactive) each time. Besides, the GI50 in [13], in experiment [14], in [15], in experiment [16], in experiment [17] and in experiment [18] was > 100 µM (inactive) in each case. For the same compound, the GI50 in [19] and in experiment [20] was > 100 µM (inactive) throughout.

For `CC(=O)N(CN1C(=O)CCC1C(=O)O)c1ccccc1` (stereo not given), the GI50 in experiment [1] is > 56.6 µM (inactive); in experiment [2], > 58.6 µM (inactive); in [3], > 61.4 µM (inactive); in [4], > 55.7 µM (inactive); in experiment [5] it was > 55.6 µM (inactive); in experiment [6] it was > 63.1 µM (inactive). For the same compound, the GI50 was > 56.9 µM (inactive) in experiment [7]; > 54.5 µM (inactive) in experiment [8]; > 58.9 µM (inactive) in experiment [9]; > 54.2 µM (inactive) in experiment [10]; > 100 µM (inactive) in [11]; > 53 µM (inactive) in experiment [12]. For the same compound, the GI50 is 29.9 µM (inactive) in experiment [13]; > 55.6 µM (inactive) in experiment [14]; > 100 µM (inactive) in [15]; > 100 µM (inactive) in experiment [16]; > 100 µM (inactive) in experiment [17]; > 53.5 µM (inactive) in experiment [18]. The GI50 in [19] is > 51.9 µM (inactive); in experiment [20], > 56.9 µM (inactive).

As to `Cn1nnc2c(C(N)=O)ncn2c1=O` [TEMOZOLOMIDE], the GI50 was > 100 µM (inactive) in experiment [1]; > 100 µM (inactive) in [2]; > 100 µM (inactive) in [3]; 85.5 µM (inactive) in [4]; > 100 µM (inactive) in experiment [5]; > 100 µM (inactive) in experiment [6]. For the same compound, the GI50 in experiment [7] was 82 µM (inactive); in experiment [8] it was > 100 µM (inactive); in experiment [9] it was > 100 µM (inactive); in experiment [10] it was 83.6 µM (inactive); in [11], > 100 µM (inactive); in experiment [12], > 100 µM (inactive). Moreover, the GI50 in experiment [13], in experiment [14], in experiment [15], in experiment [16], in [17] and in experiment [18] was > 100 µM (inactive) throughout. Also, the GI50 in experiment [19] was > 100 µM (inactive); in experiment [20] it was > 74 µM (inactive).

For the compound `CCc1cccc(CC)c1NC(=S)NC(=O)c1ccc(Br)cc1`, the GI50 was 32.4 µM (inactive) in experiment [1]; 18.1 µM (inactive) in experiment [2]; 75.7 µM (inactive) in [3]; 17.5 µM (inactive) in experiment [4]; 32.4 µM (inactive) in experiment [5]; 18.5 µM (inactive) in experiment [6]. Also, the GI50 in [7] was > 39.4 µM (inactive); in experiment [8], 26.8 µM (inactive); in experiment [9], 30.4 µM (inactive); in experiment [10], 18.8 µM (inactive); in [11], 17.7 µM (inactive); in experiment [12] it was 17.6 µM (inactive). Besides, the GI50 in experiment [13] was 29.7 µM (inactive); in experiment [14], > 50.4 µM (inactive); in experiment [15], 55.1 µM (inactive); in experiment [16], 20.3 µM (inactive); in experiment [17], 36.5 µM (inactive); in experiment [18], 25.3 µM (inactive). The GI50 was 19.7 µM (inactive) in experiment [19] and 26.3 µM (inactive) in experiment [20].

Turning to `O=C1N[C@@H](c2c[nH]c3ccc(Br)cc23)C(=O)N[C@H]1c1c[nH]c2ccc(Br)cc12`, the GI50 in experiment [1] is 3.68 µM (inactive); in experiment [2], 7.21 µM (inactive); in [3], 13.8 µM (inactive); in experiment [4] it was 6.9 µM (inactive); in experiment [5] it was 12 µM (inactive); in [6], 3.71 µM (inactive). Further, the GI50 in experiment [7] is 6.14 µM (inactive); in experiment [8], 9.12 µM (inactive); in [9], 8.17 µM (inactive); in [10], 3.53 µM (inactive); in experiment [11], 5.73 µM (inactive); in [12], 6.61 µM (inactive). Besides, the GI50 in [13] is 31.4 µM (inactive); in experiment [14], 13.9 µM (inactive); in [15], 15.1 µM (inactive); in experiment [16], 4.72 µM (inactive); in experiment [17] it was 10.9 µM (inactive); in experiment [18], 4.06 µM (inactive). The GI50 was 7.26 µM (inactive) in experiment [19] and 16.3 µM (inactive) in experiment [20].

Consider `COc1ccc(-c2cc(=O)c3c(OC)c(OC)c(OC)c(OC)c3o2)cc1` [TANGERETIN], for which the GI50 in experiment [1] was 57 µM (inactive); in experiment [2] it was 55.7 µM (inactive); in experiment [3], 85.5 µM (inactive); in experiment [4], 34.4 µM (inactive); in experiment [5] it was 82.6 µM (inactive); in experiment [6], 20.2 µM (inactive). Moreover, the GI50 in experiment [7] is 52.2 µM (inactive); in experiment [8] it was 76.9 µM (inactive); in experiment [9] it was 54.7 µM (inactive); in experiment [10], 64.6 µM (inactive); in [11], 56.2 µM (inactive); in experiment [12], 15.3 µM (inactive). Moreover, the GI50 in experiment [13] is 23.7 µM (inactive); in experiment [14] it was > 100 µM (inactive); in experiment [15], > 100 µM (inactive); in experiment [16], > 100 µM (inactive); in experiment [17], 67.8 µM (inactive); in experiment [18], 58.2 µM (inactive). Besides, the values for the GI50 in experiment [19] and in experiment [20] were 22.4 µM (inactive) and 37.5 µM (inactive), respectively.

With `N#CC(C#N)=C(N)/C(C#N)=C/c1ccc(O)c(O)c1`, the GI50 in experiment [1] is > 85.7 µM (inactive); in experiment [2] it was > 65.2 µM (inactive); in [3], > 100 µM (inactive); in experiment [4], 22.6 µM (inactive); in [5] it was 15.5 µM (inactive); in experiment [6] it was 43.6 µM (inactive). Also, the GI50 in experiment [7] was 52.8 µM (inactive); in [8], > 100 µM (inactive); in experiment [9] it was > 100 µM (inactive); in experiment [10] it was 47.9 µM (inactive); in [11], 50.5 µM (inactive); in experiment [12], > 61.2 µM (inactive). Besides, the GI50 in experiment [13] was 41.5 µM (inactive); in experiment [14] it was > 58.3 µM (inactive); in [15], > 100 µM (inactive); in [16] it was 29.3 µM (inactive); in experiment [17], 50.2 µM (inactive); in experiment [18], > 100 µM (inactive). Also, the GI50 was 49 µM (inactive) in experiment [19] and 37.2 µM (inactive) in experiment [20].
